# Where two headings read alike, the source gives them in different places. Square brackets hold non-standard residues; d marks the D form. Ends that are not written are not given here.
# Legend:
# E. coli strain 018:K1 = experiment: E. coli peritonitis, survival; assay type: in vivo, BALB/c mice
# [1] = in vivo
# S. pyogenes = tested on: S. pyogenes; set-up: species or system BALB/c mice; conditions: mouse, in vivo
# Streptococcus pneumoniae = assay type: in vivo, BALB/c mice; conditions: ceftriaxone alone 1 mg/kg i.p. (suboptimal) at 24 hours post infection
# Procedure: Treatment with the peptide D-Ala-p2TA was adjunct to antibiotic treatment, and was given at a delayed time point, when the infection was already established.
# When the animals are treated with ceftriaxone alone, administered intraperitoneal (i.p.) at a suboptimal dose of LD25 (1 mg/kg), given at 24 hours after the infection, survival rates increased to 20%. However, when the peptide D-Ala-p2TA (at 5 mg/kg) was given in combination with the antibiotics, 24 hours post infection, substantial increase in survival, to 50%, was detected (see FIG. 17).
# The correlation between survival benefit and different doses of the peptide D-Ala-p2TA was investigated when the S. pneumoniae infected animals (n=10) received a combination of a fixed dose of antibiotics (ceftriaxone, at a suboptimal dose of 1 mg/kg, administered i.p.) and different doses of the peptide D-Ala-p2TA, given 2 minutes after antibiotic treatment at 24 hours post infection. Under these experimental conditions (see FIG. 18), non-treated mice died rapidly, starting at day 2, and by day 3, all animals were already dead. Antibiotic treatment alone did provide a minor change in survival, bringing it to 20%.
# polymicrobial infection = experiment: Cecal ligation and puncture (CLP) polymicrobial infection, survival; assay type: in vivo, mice; conditions: moxifloxacin alone, high dose (LD90) at 12 hours post CLP
molecule,measurement,setting,value
H-D-Ala-Ser-Pro-Met-Leu-[U-^14C]Val-Ala-Tyr-Asp-D-Ala-OH [[^14C]-D-Ala-p2TA],time of peak accumulation in lymphatic organs (lymph nodes),"5 mg/kg single i.v., radioactivity",20 min
same,ratio of lymph nodes to plasma,4 minutes post infusion,greater than 1
same,ratio of radioactivity in spleen compared to plasma,20 min after injection,6 fold
same,levels in lymph nodes vs plasma,20 minutes,22 fold
same,levels in lymph nodes vs plasma,24 hours post dosing,greater than 3 fold
same,ratio of radioactivity in spleen compared to plasma,24 hours post injection,3 fold
same,levels in lymph nodes vs plasma,for 2 hours,more than 5 fold
same,start of accumulation in lymphatic organs,"post injection, 5 mg/kg single i.v.",4 min
[dA]ASMDYPVL[dA] [scrambled peptide],survival rate,E. coli strain 018:K1; scrambled peptide control,comparable to the saline treated control
CO/N=C(\C(=O)N[C@@H]1C(=O)N2C(C(=O)[O-])=C(C[N+]3(C)CCCC3)CS[C@H]12)c1csc(N)n1 [cefepime],overall survival,"E. coli strain 018:K1; cefepime alone, suboptimal 5 mg/kg i.m. 4 hours after challenge",20%
"CSCC[C@H](NC(=O)[C@@H]1CCCN1C(=O)[C@@H](N)CO)C(=O)N[C@@H](CC(C)C)C(=O)N[C@H](C(=O)N[C@@H](C)C(=O)N[C@@H](Cc1ccc(O)cc1)C(=O)N[C@@H](CC(=O)O)C(=O)O)C(C)C [p2TA, SPMLVAYD]",half-life,[1],1 to 2.6 min
CO/N=C(\C(=O)N[C@@H]1C(=O)N2C(C(=O)O)=C(CSc3nc(=O)c(=O)[nH]n3C)CS[C@H]12)c1csc(N)n1 [ceftriaxone],survival,S. pyogenes,70%
same,survival,Streptococcus pneumoniae,20%
COc1c(N2C[C@@H]3CCCN[C@@H]3C2)c(F)cc2c(=O)c(C(=O)O)cn(C3CC3)c12 [moxifloxacin],survival rate,polymicrobial infection,22%

# Source: US9567367B2, “Synthetic peptides for treatment of bacterial infections” (priority 2012, dated 2017)
